The target in data set [1] is T1, Orexin/Hypocretin receptor type 1 (Homo sapiens, UniProt O43613).
T1 sequence (O43613 whole entry): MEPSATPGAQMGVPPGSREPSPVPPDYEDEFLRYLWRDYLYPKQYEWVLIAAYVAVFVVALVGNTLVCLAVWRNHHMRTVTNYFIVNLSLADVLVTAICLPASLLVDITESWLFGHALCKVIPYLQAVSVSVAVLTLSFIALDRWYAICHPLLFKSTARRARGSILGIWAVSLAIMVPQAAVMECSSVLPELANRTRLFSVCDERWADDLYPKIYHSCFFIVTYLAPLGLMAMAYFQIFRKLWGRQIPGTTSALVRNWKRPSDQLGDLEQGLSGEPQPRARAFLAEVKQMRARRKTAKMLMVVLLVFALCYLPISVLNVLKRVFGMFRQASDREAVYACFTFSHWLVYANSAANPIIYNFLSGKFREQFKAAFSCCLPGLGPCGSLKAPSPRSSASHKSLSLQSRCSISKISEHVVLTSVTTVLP
Description: Agonist activity at OX1R (unknown origin).

For data set [2], the target named is T2, Orexin receptor type 2 (Mus musculus, UniProt P58308).
T2 sequence (P58308 whole entry): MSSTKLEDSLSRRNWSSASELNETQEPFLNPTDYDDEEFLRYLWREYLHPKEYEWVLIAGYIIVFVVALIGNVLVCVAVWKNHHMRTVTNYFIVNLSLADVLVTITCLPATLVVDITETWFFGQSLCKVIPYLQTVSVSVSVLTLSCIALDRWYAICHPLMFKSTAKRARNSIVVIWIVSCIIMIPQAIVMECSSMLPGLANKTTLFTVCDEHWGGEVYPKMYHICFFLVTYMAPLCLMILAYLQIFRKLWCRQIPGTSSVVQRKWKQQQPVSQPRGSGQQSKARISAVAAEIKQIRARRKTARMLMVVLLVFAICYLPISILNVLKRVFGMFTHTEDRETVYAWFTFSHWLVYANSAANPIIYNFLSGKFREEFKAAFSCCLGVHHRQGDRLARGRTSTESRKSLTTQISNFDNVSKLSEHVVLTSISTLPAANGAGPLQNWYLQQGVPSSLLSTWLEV
Description: Agonist activity at mouse OX2R expressed in HEK293 cells by AP-TGFalpha reporter assay.

Data set [3] can be described thus: Drug concentration in mouse plasma at 40 mg/kg, sc. The class given is ADME, organism-based. The conditions noted are these: in vivo.
Data set [4] in a line: Ratio of drug concentration in mouse brain to plasma at 40 mg/kg, sc.
Data set [5] has as its target T3, Orexin/Hypocretin receptor type 1 (Mus musculus, UniProt P58307).
T3 sequence (P58307 whole entry): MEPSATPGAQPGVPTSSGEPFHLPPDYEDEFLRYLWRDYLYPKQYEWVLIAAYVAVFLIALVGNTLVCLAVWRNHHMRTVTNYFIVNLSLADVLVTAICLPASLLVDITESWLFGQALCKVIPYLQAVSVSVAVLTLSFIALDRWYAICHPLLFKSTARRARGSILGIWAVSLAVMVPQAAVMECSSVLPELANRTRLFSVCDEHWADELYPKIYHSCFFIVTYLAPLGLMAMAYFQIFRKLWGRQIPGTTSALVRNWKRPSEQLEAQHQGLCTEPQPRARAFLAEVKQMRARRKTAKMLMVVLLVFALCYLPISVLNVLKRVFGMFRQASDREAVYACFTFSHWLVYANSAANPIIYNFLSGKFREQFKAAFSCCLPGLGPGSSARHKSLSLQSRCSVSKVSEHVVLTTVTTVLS
In words: Agonist activity at mouse OX1R expressed in HEK293 cells by AP-TGFalpha reporter assay.

Data set [6] in a line: Drug concentration in mouse brain at 40 mg/kg, sc. The class given is ADME, organism-based. The conditions noted are these: in vivo.
Data set [7] has as its target T1, Orexin/Hypocretin receptor type 1.
Description: Agonist activity at human OX1R expressed in CHO-K1 cells assessed as increase in intracellular calcium
The target in data set [8] is T4, Orexin receptor type 2 (Homo sapiens, UniProt O43614).
T4 sequence (O43614 whole entry): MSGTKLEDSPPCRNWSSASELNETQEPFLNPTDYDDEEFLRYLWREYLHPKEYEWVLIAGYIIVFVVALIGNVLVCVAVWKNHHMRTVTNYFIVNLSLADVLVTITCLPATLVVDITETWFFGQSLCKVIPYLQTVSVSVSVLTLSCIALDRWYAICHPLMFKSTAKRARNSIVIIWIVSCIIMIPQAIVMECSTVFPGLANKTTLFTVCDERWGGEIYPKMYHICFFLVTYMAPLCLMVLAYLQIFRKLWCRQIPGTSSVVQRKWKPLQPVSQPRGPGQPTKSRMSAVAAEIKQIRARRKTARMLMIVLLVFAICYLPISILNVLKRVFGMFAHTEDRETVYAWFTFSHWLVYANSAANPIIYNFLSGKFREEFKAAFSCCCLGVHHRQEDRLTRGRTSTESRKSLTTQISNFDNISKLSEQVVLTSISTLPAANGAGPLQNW
Description: Agonist activity at human OX2R expressed in CHO-K1 cells assessed as increase in intracellular calcium

Compound `COc1ccc(-c2cccc(C(=O)N(C)C)c2)cc1S(=O)(=O)Nc1cccc(CCNC(=O)c2ccccc2-n2nccn2)c1` came in with an EC50 in data set [1] of 36000 nM. This lies in the double-digit micromolar range. For the compound `COc1cccc(CC(=O)N(C)[C@@H]2CCCc3ccc(NS(=O)(=O)c4cc(-c5cccc(C(=O)N(C)C)c5)ccc4OC)cc32)c1`, the EC50 was found to be 69 nM on Orexin receptor type 2 [2] and 174 nM in data set [5]. Further, the concentration in data set [3] came out at 25 µM. The Kp in data set [4] was 0.002. In data set [6], this compound returned a Ct of 61.1 pmol/g. On to `COc1cccc(CC(=O)N(C)[C@H]2CCCc3ccc(NS(=O)(=O)c4cc(/C=C/C(=O)Nc5ccncc5)ccc4OC)cc32)c1`, for which the EC50 in data set [7] turned out to be 3590 nM. Turning to `CCCCNC(=O)/C=C/c1ccc(OC)c(S(=O)(=O)Nc2ccc3c(c2)C(N(C)C(=O)Cc2cccc(OC)c2)CCC3)c1` (centres undefined), the EC50 is 573 nM in data set [7] and above 10000 nM at Orexin receptor type 2 [8]. As for `COc1cccc(CC(=O)N(C)C2CCCc3ccc(NS(=O)(=O)c4cc(/C=C/C(N)=O)ccc4OC)cc32)c1` (centres undefined), the response in data set [7] was half-maximal at 581 nM (EC50). On to `CNC(=O)/C=C/c1ccc(OC)c(S(=O)(=O)Nc2ccc3c(c2)C(N(C)C(=O)Cc2cccc(OC)c2)CCC3)c1` (centres undefined), for which the values for the 50% effective concentration (EC50) (in data set [7]; on Orexin receptor type 2 [8]) were 501 nM and above 10000 nM, respectively. In the same order, the values of `COc1cccc(CC(=O)N(C)C2CCCc3ccc(NS(=O)(=O)c4cc(/C=C/C(=O)NCCN(C)C)ccc4OC)cc32)c1` (centres undefined) are 271 nM and 2410 nM. In the same order, the values of `COc1cccc(CC(=O)N(C)C2CCCc3ccc(NS(=O)(=O)c4cc(/C=C/C(=O)Nc5ccccn5)ccc4OC)cc32)c1` (centres undefined) are 201 nM and 955 nM. The compound `COc1cccc(CC(=O)N(C)C2CCCc3ccc(NS(=O)(=O)c4cc(CCC(=O)N(C)C)ccc4OC)cc32)c1` (centres undefined) showed an EC50 in data set [7] of 1760 nM. This counts as single-digit micromolar. In the case of `COc1cccc(CC(=O)N(C)C2CCCc3ccc(NS(=O)(=O)c4cc(/C=C/C(=O)N(C)c5ccncc5)ccc4OC)cc32)c1` (centres undefined), the EC50 in data set [7] came out at 187 nM; on Orexin receptor type 2 [8] it was 275 nM. On to `COc1cccc(CC(=O)N(C)C2CCCc3ccc(NS(=O)(=O)c4cc(-c5ccccc5)ccc4OC)cc32)c1` (centres undefined), for which the EC50 in data set [7] came out at 5920 nM; on Orexin receptor type 2 [8], 1290 nM. The like results for `COc1cccc(CC(=O)N(C)C2CCCc3ccc(NS(=O)(=O)c4cc(/C=C/C(=O)Nc5cccnc5)ccc4OC)cc32)c1` (centres undefined) were, in that order, 43.4 nM and 295 nM. Consider `COc1cccc(CC(=O)N(C)[C@@H]2CCCc3ccc(NS(=O)(=O)c4cc(/C=C/C(=O)Nc5ccncc5)ccc4OC)cc32)c1`, for which the figures for the EC50 (at Orexin receptor type 2 [2]; in data set [7]; in data set [5]) were 457 nM, 747 nM and 154 nM, respectively. In data set [3], this compound displayed a concentration of 32 µM. Further, the Ct in data set [6] was 137 pmol/g. Regarding `COc1cccc(CC(=O)N(C)C2CCCc3ccc(NS(=O)(=O)c4cc(/C=C/C(=O)Nc5ccccc5)ccc4OC)cc32)c1` (centres undefined), the EC50 in data set [7] stood at 472 nM; at Orexin receptor type 2 [8], 3290 nM.

Regarding `COc1cccc(CC(=O)N(C)C2CCCc3ccc(NS(=O)(=O)c4cc(CCCC(=O)N(C)C)ccc4OC)cc32)c1` (centres undefined), at Orexin receptor type 2 [8], a half-maximal effect (EC50) was put at 1020 nM.

Turning to `COc1cccc(CC(=O)N(C)C2CCCc3ccc(NS(=O)(=O)c4cc(CC(=O)N(C)C)ccc4OC)cc32)c1` (centres undefined), the response in data set [7] was half-maximal at 1040 nM (EC50). Take `COc1cccc(CC(=O)N(C)C2CCCc3ccc(NS(=O)(=O)c4cc(/C=C/C(=O)N(C)C)ccc4OC)cc32)c1` (centres undefined): the EC50 is 1280 nM in data set [7] and above 10000 nM on Orexin receptor type 2 [8]. In the same order, the values of `COc1cccc(CC(=O)N(C)C2CCCc3ccc(NS(=O)(=O)c4cc(C(=O)N(C)C)ccc4OC)cc32)c1` (centres undefined) are 607 nM and 146 nM. The like results for `COCCNC(=O)/C=C/c1ccc(OC)c(S(=O)(=O)Nc2ccc3c(c2)C(N(C)C(=O)Cc2cccc(OC)c2)CCC3)c1` (centres undefined) were, in that order, 476 nM and above 10000 nM. Consider `COc1cccc(CC(=O)N(C)C2CCCc3ccc(NS(=O)(=O)c4cc(/C=C/C(=O)Nc5ccncc5)ccc4OC)cc32)c1` (racemic), for which a half-maximal effect in data set [7] (EC50) was put at 15.3 nM.

The values are drawn from ChEMBL document CHEMBL5380861, “Design and Synthesis of Orexin 1 Receptor-Selective Agonists” (J Med Chem, 2023).
